Reference: patent publication US11155523B2, “Biphenyl compound as CCR2/CCR5 receptor antagonist” (Medshine Discovery Inc., priority 2016, dated 2021)

Key:
[1] = biological target: T1, CCR2 (Homo sapiens, UniProt P41597); experiment: CCR2 in vitro test: intracellular calcium signal detected by FLIPR; assay type: cell-based; conditions: HEK293 cells expressing CCR2, agonist MCP-1 at EC80, calcium signal
T1 construct: expressed in transfected cells; host or cells: HEK293, clone C7, passage P6
Experimental: (§1) Experimental Example 1: CCR2/CCR5 In Vitro Test
(§2) The intracellular calcium signal was detected by FLIPR, and the IC50 value of the compound was used as an index to evaluate the inhibitory effect of the compound on CCR2 and CCR5 receptors.
(§3) 1. Cell line: The cells were inoculated and incubated in a 5% CO2 incubator at 37° C. overnight.
(§4) CCR2/CCR5 density: 1 M (20 k/well)
(§5) 2. Reagents: Fluo-4 Direct, (Invitrogen, Cat #F10471)
(§6) The compound was dissolved in DMSO to prepare a 10 mM solution, and the compound solution was placed in a nitrogen box.
(§7) Agonist reference compounds:
(§8) Preparation of probenecid in FLIPR assay buffer: 1 mL of FLIPR assay buffer was added to […] of probenecid to prepare a 250 mM solution, which is prepared fresh daily.
(§9) 2× (8 μM) Fluo-4 Direct™ Loading Buffer (per 10 mL) • Thaw a bottle of Fluo-4 Direct™ crystal (F10471). • Add 10 mL of FLIPR assay buffer to the vial. • Add 0.2 mL of probenecid to each 10 mL of Fluo-Direct. The final concentration of the assay was 2.5 mM. • Rotate it and place for >5 minutes (in absence of light). • Prepare fresh daily.
(§10) MCP-1 was diluted in FLIPR assay buffer 1:2 into 10 points, starting at 0.5 uM (final 100 nM). RANTES was diluted in FLIPR assay buffer 1:3 into 10 points, starting at 0.5 uM (final 100 nM). 20 uL of serially diluted compound buffer was added to each well of the DRC plate according to the compound plate map.
(§11) Standard compound was diluted in DMSO 1:3 into 11 points, starting at 1 mM. Test compound was diluted in DMSO 1:3 into 11 points, starting at 2 mM. 250 nL of compound solution was transferred into a cell plate using Echo (Greiner #781946).
(§12) (c) Take the cell plate out of the incubator, and gently dispense 20 uL of 2× Fluo-4 Direct wash-free loading buffer into a 384-well cell culture plate using a pipette. The final cell plate is 40 μL in volume.
(§13) (d) Incubate for 50 minutes at 37° C. under 5% CO2, and for 10 minutes at room temperature.
(§14) (e) Take the cell plate out of the incubator, and place it in FLIPR. Place the composite plate and the tip box in FLIPR.
(§15) (f) For DRC plate: • 1) Run the program on FLIPRTETRA. • 2) Read the fluorescent signal. • 3) Transfer 10 μL of compound from the DRC plate to the cell plate. • 4) Read the fluorescent signal. • 5) Calculate the “maximum−minimum” from Read 90 to the maximum allowed. Use FLIPR to calculate the EC80 value of each cell line. • 6) Prepare 5×EC80 concentration of the agonist reference compound.
(§16) (g) For the composite plate (1-add): • 1) Run the program on FLIPRTETRA. • 2) Transfer 10 μl, of 5×EC80 concentration of the agonist reference compound from the composite plate to the cell plate. • 3) Read the fluorescent signal. • 4) Calculate the “maximum−minimum” from Read 90 to the maximum allowed.
(§17) (h) Analyze the data using Prism, and calculate the IC50 value of the compound.

[2] = biological target: T2, CCR5 (Homo sapiens, UniProt P51681); experiment: CCR5 in vitro test: intracellular calcium signal detected by FLIPR; assay type: cell-based; conditions: HEK293 cells expressing CCR5, agonist RANTES at EC80, calcium signal
T2 construct: expressed in transfected cells; host or cells: HEK293, clone C13, passage P4
Experimental: as §1, §2, §3, §4, §5, §6, §7, §8, §9, §10, §11, §12, §13, §14, §15, §16, §17

T1 sequence (P41597 whole entry, species assumed): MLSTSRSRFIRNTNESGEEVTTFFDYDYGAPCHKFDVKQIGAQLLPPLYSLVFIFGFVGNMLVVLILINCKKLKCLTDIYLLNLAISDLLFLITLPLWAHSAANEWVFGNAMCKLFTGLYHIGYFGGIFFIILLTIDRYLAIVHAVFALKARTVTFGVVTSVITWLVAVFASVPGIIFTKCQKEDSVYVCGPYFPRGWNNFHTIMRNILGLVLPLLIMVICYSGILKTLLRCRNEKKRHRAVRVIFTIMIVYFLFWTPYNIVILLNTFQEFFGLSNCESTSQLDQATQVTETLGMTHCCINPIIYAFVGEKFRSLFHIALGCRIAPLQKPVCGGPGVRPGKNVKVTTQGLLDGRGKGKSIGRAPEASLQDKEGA
T2 sequence (P51681 whole entry, species assumed): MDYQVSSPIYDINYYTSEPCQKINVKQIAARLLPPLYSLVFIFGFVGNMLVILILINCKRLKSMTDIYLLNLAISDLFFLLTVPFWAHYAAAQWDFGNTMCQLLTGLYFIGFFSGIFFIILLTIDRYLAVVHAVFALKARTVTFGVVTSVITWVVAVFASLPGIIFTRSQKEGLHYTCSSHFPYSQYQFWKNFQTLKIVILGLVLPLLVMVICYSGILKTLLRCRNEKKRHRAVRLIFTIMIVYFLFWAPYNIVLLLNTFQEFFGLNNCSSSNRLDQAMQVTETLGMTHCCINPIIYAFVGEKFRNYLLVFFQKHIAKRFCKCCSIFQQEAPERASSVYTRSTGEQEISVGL

Structure (SMILES) | IC50 [1] | IC50 [2]
CCCCOCCOc1ccc(-c2cccc(/C=C/C(=O)Nc3ccc([S+]([O-])Cc4cncn4CC)cc3)c2)cc1 (stereo not drawn) [WX019] | 9.3 nM | 50.9 nM
CCCCOCCOc1ccc(-c2ccc(SC(C)C)c(/C=C/C(=O)Nc3ccc([S@@+]([O-])Cc4cncn4CCC)cc3)c2)cc1 [WX058] | 28.2 nM | 5.7 nM
CCCCOCCOc1ccc(-c2ccc(OC)c(/C=C/C(=O)Nc3ccc([S@+]([O-])Cc4cncn4CCC)cc3)c2)cc1 [WX085] | 5.2 nM | 5.6 nM
CCCCOCCOc1ccc(-c2ccc(OC)c(/C=C/C(=O)Nc3ccc([S+]([O-])Cc4cnccc4C)cc3)c2)cc1 (stereo not drawn) [WX056] | 71.1 nM | 16.6 nM
CCCCOCCOc1ccc(-c2ccc(Cl)c(/C=C/C(=O)Nc3ccc([S@@+]([O-])Cc4cncn4CCC)cc3)c2)cc1 [WX016] | 75.1 nM | 4.5 nM
CCCCOCCOc1ccc(-c2ccc(OCC)c(/C=C/C(=O)Nc3ccc([S@@+]([O-])Cc4cncn4CCC)cc3)c2)cc1 [WX032] | 28.6 nM | 8.1 nM
CCCCOCCOc1ccc(-c2cc(C)cc(/C=C/C(=O)Nc3ccc([S@@+]([O-])Cc4cncn4CCC)cc3)c2)cc1 [WX059] | 9.9 nM | 8.5 nM
CCCCOCCOc1ccc(-c2cc(Cl)c(OC)c(/C=C/C(=O)Nc3ccc([S@@+]([O-])Cc4cncn4CCC)cc3)c2)cc1 [WX053] | 5.9 nM | 1.3 nM
CCCCOCCOc1ccc(-c2ccc(OC(C)C)c(/C=C/C(=O)Nc3ccc([S@@+]([O-])Cc4cncn4CCC)cc3)c2)cc1 [WX033] | 56.3 nM | 11.8 nM
CCCCOCCOc1ccc(-c2ccc(CC)c(/C=C/C(=O)Nc3ccc([S@@+]([O-])Cc4cncn4CCC)cc3)c2)cc1 [WX005] | 12.1 nM | 3.4 nM
CCCOCCOc1ccc(-c2ccc(OC(F)F)c(/C=C/C(=O)Nc3ccc([S@@+]([O-])Cc4cncn4CCC)cc3)c2)cc1 [WX064] | 12.8 nM | 6.1 nM
CCCCOc1ccc(-c2cccc(/C=C/C(=O)Nc3ccc([S@@+]([O-])Cc4cncn4CCC)cc3)c2)cc1 [WX009] | 63.2 nM | 9.4 nM
CCCCOc1ccc(-c2ccc(OCC(F)F)c(/C=C/C(=O)Nc3ccc([S@@+]([O-])Cc4cncn4CCC)cc3)c2)cc1 [WX026] | 175 nM | 3.2 nM
CCCCOCCOc1ccc(-c2cccc(/C(C)=C/C(=O)Nc3ccc([S@@+]([O-])Cc4cncn4CCC)cc3)c2)cc1 [WX012] | 51 nM | 5.4 nM
CCCOCCOc1ccc(-c2ccc(OCC)c(/C=C/C(=O)Nc3ccc([S@@+]([O-])Cc4cncn4CCC)cc3)c2)cc1 [WX067] | 16.8 nM | 0.9 nM
CCCn1cncc1C[S@+]([O-])c1ccc(NC(=O)/C=C/c2cccc(-c3ccc(OC)cc3)c2)cc1 [WX002] | 319 nM | 113 nM
CCCCOCCOc1ccc(-c2cc(/C=C/C(=O)Nc3ccc([S@@+]([O-])Cc4cncn4CCC)cc3)c(OC)c(OC)c2)cc1 [WX035] | 215 nM | 16.1 nM
CCCCOCCOc1ccc(-c2cccc(/C=C/C(=O)Nc3ccc([S+]([O-])Cc4cncn4CCCC)cc3)c2)cc1 (stereo not drawn) [WX028] | 86.4 nM | 15.5 nM
CCCCOCCOc1ccc(-c2ccc(F)c(/C(C)=C/C(=O)Nc3ccc([S@@+]([O-])Cc4cncn4CCC)cc3)c2)cc1 [WX014] | 258 nM | 7.9 nM
CCCOCCOc1ccc(-c2ccc(OC)c(/C=C/C(=O)Nc3ccc([S@@+]([O-])Cc4cncn4CCC)cc3)c2)cc1 [WX050] | 12.6 nM | 20.8 nM
CCCCOc1ccc(-c2ccc(Cl)c(/C=C/C(=O)Nc3ccc([S@@+]([O-])Cc4cncn4CCC)cc3)c2)cc1 [WX025] | 127 nM | 7.4 nM
CCCCOCCOc1ccc(-c2cccc(/C=C/C(=O)Nc3ccc(S(=O)(=O)Cc4cncn4CCC)cc3)c2)cc1 [WX031] | 237 nM | 95.9 nM
CCCCOCCOc1ccc(-c2ccc(OC)c(/C=C/C(=O)Nc3ccc([S+]([O-])Cc4cnccc4CC)cc3)c2)cc1 (stereo not drawn) [WX086] | 13 nM | 1.8 nM
CCCOc1ccc(-c2ccc(OC(F)F)c(/C=C/C(=O)Nc3ccc([S@@+]([O-])Cc4cncn4CCC)cc3)c2)cc1 [WX052] | 80.8 nM | 11.9 nM
CCCCOCCOc1ccc(-c2cccc(/C=C/C(=O)Nc3ccc([S@@+]([O-])Cc4nncn4CCC)cc3)c2)cc1 [WX010] | 214 nM | 17.2 nM
CCCCOc1ccc(-c2ccc(OCCCF)c(/C=C/C(=O)Nc3ccc([S@@+]([O-])Cc4cncn4CCC)cc3)c2)cc1 [WX024] | 63.1 nM | 1.3 nM

Second part, the compound after the results:

IC50 [1] | IC50 [2] | Structure (SMILES)
24.7 nM | 3.5 nM | CCCCOCCOc1ccc(-c2ccc([S+]([O-])C(C)C)c(/C=C/C(=O)Nc3ccc([S@@+]([O-])Cc4c(C)ncn4CC)cc3)c2)cc1 (stereo partly drawn) [WX057]
77.6 nM | 14.8 nM | CCCCOCCOc1ccc(-c2ccc(OC)c(/C=C/C(=O)Nc3ccc([S+]([O-])Cc4c(C)ncn4CC)cc3)c2)cc1 (stereo not drawn) [WX045]
17.3 nM | 2.4 nM | CCCCOCCOc1ccc(-c2ccc(OC)c(/C=C/C(=O)Nc3ccc([S@+]([O-])Cc4c(C)ncn4CCC)cc3)c2)cc1 [WX075]
49.6 nM | 68 nM | CCCOCCOc1ccc(-c2ccc(OC)c(/C=C/C(=O)Nc3ccc([S@@+]([O-])Cc4c(C)ncn4CC)cc3)c2)cc1 [WX065]
3.9 nM | 10.1 nM | CCCCOCCOc1ccc(-c2cc(C)cc(/C=C/C(=O)Nc3ccc([S@+]([O-])Cc4c(C)ncn4CC)cc3)c2)cc1 [WX092]
35.3 nM | 1 nM | CCCOCCOc1ccc(-c2ccc(OCC)c(/C=C/C(=O)Nc3ccc([S+]([O-])Cc4c(C)ncn4CCC)cc3)c2)cc1 (stereo not drawn) [WX069]
5.4 nM | 3.5 nM | CCCOCCOc1ccc(-c2ccc(OC(F)F)c(/C=C/C(=O)Nc3ccc([S@+]([O-])Cc4c(C)ncn4CC)cc3)c2)cc1 [WX074]
11.3 nM | 10.5 nM | CCCCOCCOc1ccc(-c2ccc(OC)c(/C=C/C(=O)Nc3ccc([S@@+]([O-])Cc4cncn4CC)cc3)c2)cc1 [WX040]
7.6 nM | 6.4 nM | CCCCOCCOc1ccc(-c2ccc(OC(F)(F)F)c(/C=C/C(=O)Nc3ccc([S@+]([O-])Cc4c(C)ncn4CC)cc3)c2)cc1 [WX055]
42.2 nM | 8.5 nM | CCCCOCCOc1ccc(-c2ccc(OC)c(/C=C/C(=O)Nc3ccc([S@@+]([O-])Cc4c(C)ncn4CCC)cc3)c2)cc1 [WX076]
61 nM | 2.6 nM | CCCCOCCOc1ccc(-c2ccc(C)c(/C=C/C(=O)Nc3ccc([S@@+]([O-])Cc4cncn4CCC)cc3)c2)cc1 [WX011]
9.4 nM | 1.4 nM | CCCOc1ccc(-c2ccc(OC(F)F)c(/C=C/C(=O)Nc3ccc([S@+]([O-])Cc4c(C)ncn4CC)cc3)c2)cc1 [WX063]
18.5 nM | 4.1 nM | CCCCOCCOc1ccc(-c2ccc(C(F)(F)F)c(/C=C/C(=O)Nc3ccc([S@@+]([O-])Cc4cncn4CCC)cc3)c2)cc1 [WX060]
4.5 nM | 3.4 nM | CCCCOCCOc1ccc(-c2ccc(C(F)(F)F)c(/C=C/C(=O)Nc3ccc([S@+]([O-])Cc4c(C)ncn4CC)cc3)c2)cc1 [WX071]
1.1 nM | 2.8 nM | CCCCOCCOc1ccc(-c2ccc(OC(F)F)c(/C=C/C(=O)Nc3ccc([S@+]([O-])Cc4c(C)ncn4CC)cc3)c2)cc1 [WX046]
11.9 nM | 6.5 nM | CCCCOCCOc1ccc(-c2ccc(C3CCCC3)c(/C=C/C(=O)Nc3ccc([S@+]([O-])Cc4c(C)ncn4CC)cc3)c2)cc1 [WX073]
39.2 nM | 8.4 nM | CCCCOCCOc1ccc(-c2ccc(C(F)(F)F)c(/C=C/C(=O)Nc3ccc([S@@+]([O-])Cc4c(C)ncn4CC)cc3)c2)cc1 [WX070]
15 nM |  | CCCCOCCOc1ccc(-c2cc(F)c(OCC)c(/C=C/C(=O)Nc3ccc([S@+]([O-])Cc4c(C)ncn4CC)cc3)c2)cc1 [WX089]
